# According to EP4599829A1, “USE OF IMIDAZOLIDINYL VANILLIC ACID ETHER DERIVATIVE IN TREATMENT OF DISEASE ACCOMPANIED BY FIBROSIS” (Hefei Institute of Pharmaceutical Industry Co., Ltd., priority 2022, dated 2024):
# Marks after values point to notes of the source that are not given here.
# Columns and labels:
# Format in all cases: in vivo, Female BALB/c mice
# [1] = system: BLM-Induced Systemic Sclerosis Mouse Model; test: Comparison with other antiplatelet drugs: skin thickening in BLM-induced systemic sclerosis mouse model; details: 0.10 mmol/kg once a day for 28 days; for Skin thickness: oral (gavage) (Sodium Ozagrel: intravenous injection), mean ± SE, n = 8, blank 0.22±0.05, model 0.87±0.15
# Description: (§1) Female BALB/c mice, weighing 18-22 g, were purchased from Beijing Weitonglihua Experimental Animal Technology Co., Ltd. and housed in an SPF environment for 1 week (with free access to drinking water during the feeding period). They were then randomly divided into 9 groups, with 10 mice in each group, namely, blank group, model group, sodium ozagrel group, dipyridamole group, clopidogrel group, cilostazol group, ticagrelor group, aspirin group, and HY-2 group. The back of mice of each group was shaved in an area of 1 cm*1 cm. Except for the blank group which was subcutaneously injected with normal saline, all other groups were subcutaneously injected with BLM 100 µL (0.5 mg/mL) for 28 consecutive days (the injection area was injected at the four corners of the shaved area for the first 4 times, and the center of the shaved area for the 5th time, and this cycle was repeated. The skin changes at the subcutaneous injection site and the weight changes of the mice were observed every week). Each treatment group was respectively given sodium ozagrel, dipyridamole, clopidogrel, cilostazol, ticagrelor, aspirin, and HY-2 30 minutes after the injection of BLM, once a day for 28 consecutive days (the dosage and administration method are shown in Table 1). Table 1 Dosage and administration method
# After the last administration, the animals were sacrificed, and the back skin tissue was taken, fixed with 4% paraformaldehyde, dehydrated, paraffin-embedded and sliced. The tissue sections were stained with HE, and the pathological morphological changes of the skin tissue were examined with a microscope and the skin thickening was measured.
# The experimental data were processed using GraphPad Prism 7, and the experimental groups were compared using the student t test.
# thromboxane B2 (TXB2) = test: Serum TXB2 level (ELISA) in BLM-induced systemic sclerosis mouse model; details: 0.10 mmol/kg once a day for 28 days; for TXB2: serum, oral (gavage) (Sodium Ozagrel: intravenous injection), mean ± SE, n = 8, blank 74.19±14.76, model 261.91±10.96
# Description: as §1
# (§2) Mouse TXB2 ELISA kit was purchased from Shanghai Jianglai Biological, batch number: 20220715, antibody types: purified mouse TXB2 capture antibody and horseradish peroxidase (HRP)-labeled detection antibody; mouse TGF-β1 ELISA kit was purchased from Shanghai Jianglai Biological, batch number: 20220806, antibody types: purified mouse TGF-β1 capture antibody and horseradish peroxidase (HRP)-labeled detection antibody.
# (§3) The kit uses a double-antibody one-step sandwich enzyme-linked immunosorbent assay (ELISA). Serum specimens, standards, and horseradish peroxidase (HRP)-labeled detection antibodies are added sequentially to the coated microwells pre-coated with mouse analyte capture antibodies, followed by incubation and thorough washing. The substrate TMB (3,3',5,5'-tetramethylbenzidine) is used for color development. TMB is converted to be blue under the catalysis of peroxidase (HRP) and then converted to be finally yellow under the action of acid. The depth of color is positively correlated with the content of the analyte in the serum sample. The absorbance (OD value) was measured at a wavelength of 450 nm using a microplate reader to calculate the sample concentration.
# (§4) After the last administration, the animals were sacrificed and serum samples were collected. Standard wells were set on the enzyme-labeled coated plate, standard solutions of different concentrations were prepared according to the instructions, and 50uL of standard solutions of different concentrations were added to each standard well. Blank wells and test sample wells were set on the enzyme-labeled coated plate, 40uL of sample diluent was first added to the test sample well, and 20uL of test serum sample was then added. 100uL of enzyme-labeled reagent was added to each well, except the blank well. The plate was sealed with a sealing film and incubated at 37°C for 60 minutes. The sealing film was removed, and after discarding the liquid and spinning dry, each well was filled with washing solution, and stood for 30 seconds, then discarding the washing solution, repeating 5 times and spinning dry. 50uL of color developer A (containing H2O2) was first added into each well, and then 50uL of color developer B (containing substrate TMB) was added, gently shaking to mix, and color developing at 37°C in the dark for 15 minutes. 50uL of stop solution was added to each well to stop the reaction (the blue color immediately turns to yellow). The microplate reader was adjusted to zero with the blank well, and the absorbance OD value of each well was measured in sequence at a wavelength of 450nm. The measurement should be carried out within 15 minutes after adding the stop solution.
# [2] = system: transforming growth factor β1 (TGF-β1); test: Serum TGF-β1 level (ELISA) in BLM-induced systemic sclerosis mouse model; details: 0.10 mmol/kg once a day for 28 days; for TGF-β1: serum, oral (gavage) (Sodium Ozagrel: intravenous injection), mean ± SE, n = 8, blank 379.76±120.63, model 913.10±64.73
# Description: as §1, §2, §3, §4
# [3] = system: BLM-Induced Systemic Sclerosis Mouse Model; test: Skin thickening (HE staining) in BLM-induced systemic sclerosis mouse model, dose groups; details: compared with the model group
# Protocol: Female BALB/c mice, weighing 18-22 g, were purchased from Beijing Weitong Lihua Experimental Animal Technology Co., Ltd. and housed in an SPF environment for 1 week (with free access to drinking water during the feeding period). They were then randomly divided into 5 groups, 8 mice in each group, namely, blank group, model group, 15 mg/kg, 30 mg/kg, and 60 mg/kg dosage groups of sodium 4-(2-(1H-imidazol-1-yl)ethoxy)-3-methoxybenzoate (HY-2). The back of each group of mice was shaved in an area of 1 cm*1 cm. Except for the blank group which was subcutaneously injected with normal saline, all other groups were injected with BLM 100 µL (0.5 mg/mL) for 28 consecutive days (the injection area was the four corners of the shaved area for the first 4 injections, and the center of the shaved area for the 5th injection, and this cycle was repeated. The skin changes at the subcutaneous injection site and the weight changes of the mice were observed every week). After the injection of BLM, the treatment group was orally (gavaged) given the corresponding dose of sodium 4-(2-(1H-imidazole-1-yl)ethoxy)-3-methoxybenzoate, once a day, for 28 consecutive days.
# After the last administration, the animals were sacrificed, and appropriate skin tissues were taken for HE staining and measurement of skin thickening.
# [4] = system: BLM-Induced Systemic Sclerosis Mouse Model; test: Lung histopathology (HE staining) in BLM-induced systemic sclerosis mouse model; details: each dose group (15, 30, 60 mg/kg) oral (gavage) once a day for 28 days, compared with the model group
# Protocol: (§5) Female BALB/c mice, weighing 18-22 g, were purchased from Beijing Weitonglihua Experimental Animal Technology Co., Ltd. and housed in an SPF environment for 1 week (with free access to water during the feeding period). They were then randomly divided into 5 groups, with 8 mice in each group, namely, blank group, model group, HY-2 15 mg/kg, 30 mg/kg, and 60 mg/kg dose groups. The back of each group of mice was shaved in an area of 1 cm*1 cm. Except for the blank group which was subcutaneously injected with normal saline, all other groups were injected with BLM 100 µL (0.5 mg/mL) for 28 consecutive days (the injection area was the four corners of the shaved area for the first 4 injections, and the center of the shaved area for the 5th injection, and this cycle was repeated. The skin changes at the subcutaneous injection site and the weight changes of the mice were observed every week). After the injection of BLM, each dose treatment group was orally (gavage) given the corresponding dose of HY-2 once a day for 28 consecutive days.
# After the last administration, the animals were sacrificed, and appropriate lung tissues were taken for HE staining and slide preparation to examine the lung tissue structure and inflammatory cell infiltration.
# [5] = system: BLM-Induced Systemic Sclerosis Mouse Model; test: Collagen deposition (Masson staining) in skin and lung tissues of BLM-induced systemic sclerosis mouse model; details: each dose group (15, 30, 60 mg/kg) oral (gavage) once a day for 28 days, compared with the model group, P<0.01
# Protocol: as §5, with “administered” for “given”
# After the last administration, the animals were sacrificed, and appropriate skin and lung tissues were taken for Masson staining and slide preparation to examine the collagen deposition in the skin and lung tissues. The percentage of collagen deposition was quantified using Image-Pro® Plus software.
Structure (SMILES),Skin thickness [1],TXB2 (thromboxane B2 (TXB2)),TGF-β1 [2],"skin thickening ([3]; 30 mg/kg oral (gavage) once a day for 28 days, P<0.05)","skin thickening ([3]; 60 mg/kg oral (gavage) once a day for 28 days, P<0.01)",lung tissue structure and inflammatory cell infiltration [4],collagen deposition in the lung tissue [5],collagen deposition in the skin [5],skin thickness compared with the model group (in words) ([1]; P<0.01),effect on TXB2 in serum (in words) (thromboxane B2 (TXB2); vs model group),effect on TGF-β1 in serum (in words) ([2]; vs model group)
"O=C(O)/C=C/c1ccc(Cn2ccnc2)cc1 [Sodium Ozagrel, sodium ozagrel]",0.82±0.16^aa mm,196.54 ± 45.30 pg/mL,884.74±33.45^aa pg/mL,,,,,,,,
"COC(=O)[C@H](c1ccccc1Cl)N1CCc2sccc2C1 [Clopidogrel, clopidogrel]",0.81±0.10^aa mm,208.46 ± 42.87 pg/mL,822.62 ± 76.60 pg/mL,,,,,,,,
"O=C1CCc2cc(OCCCCc3nnnn3C3CCCCC3)ccc2N1 [Cilostazol, cilostazol]",0.74±0.11^a mm,259.32±7.13^a pg/mL,838.27 ± 65.93 pg/mL,,,,,,,,
"COc1cc(C(=O)[O-])ccc1OCCn1ccnc1.[Na+] [HY-2, sodium 4-(2-(1H-imidazol-1-yl)ethoxy)-3-methoxybenzoate]",0.59±0.06 mm,215.00 ± 38.92 pg/mL,783.04 ± 53.77 pg/mL,significantly inhibited,significantly inhibited,regular and infiltrated by less inflammatory cells,significantly reduced,significantly reduced,significantly decreased,significantly reduce,significantly reduce
"CC(=O)Oc1ccccc1C(=O)O [Aspirin, aspirin]",0.80±0.09^aa mm,239.57 ± 13.60 pg/mL,827.68 ± 77.88 pg/mL,,,,,,,,
"OCCN(CCO)c1nc(N2CCCCC2)c2nc(N(CCO)CCO)nc(N3CCCCC3)c2n1 [Dipyridamole, dipyridamole]",0.74 ± 0.12^a mm,248.84 ± 38.88 pg/mL,867.56 ± 113.73 pg/mL,,,,,,,,
"CCCSc1nc(N[C@@H]2C[C@H]2c2ccc(F)c(F)c2)c2nnn([C@@H]3C[C@H](OCCO)[C@@H](O)[C@H]3O)c2n1 [Ticagrelor, ticagrelor]",0.74±0.07^aa mm,197.76 ± 42.08 pg/mL,847.62±43.73^a pg/mL,,,,,,,,
